As usually defined, the AC50 is the midpoint of the concentration-response curve, whichever way the signal moves.

These results are taken from PubChem BioAssay AID977621 (Broad Institute, 2014).

SMILES strings stand for the structures. Inconclusive results are not listed. Activity calls are given as the source filed them.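 How the source made its calls: active means Wild-type ribosome reporter drop at least double the humanized mutant ribosome reporter drop, growth loss under a set limit; inconclusive means no clear call, values can overlap the other calls; inactive means the rest.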 Some results are limits rather than exact numbers.

The first assay concerns E. coli H69 humanized mutant ribosome RFP strain growth, fluorescence, 24 h. The assay can be described thus: wild-type E. coli growth inhibition versus H69 humanized strain – H69 mutant RFP, wild-type GFP, cherry-pick, dose response (AID 977621).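 Further: wild-type GFP and H69 mutant RFP strains grown together 50/50 in each well.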 To be noted: test 2.
For `CCOc1ccc(CCNC(=O)CN2C(=O)CCSc3ccccc32)cc1`, the AC50 is above 100 µM.
In turn, `O=S(=O)(c1ccccc1)N1C[C@@H]2[C@H](c3ccccc31)[C@H](CO)N2Cc1ccccc1` showed an AC50 above 100 µM.
In turn, `CCCc1nc2oc3c(NCCCN(C)C)ncnc3c2c2c1CCCC2` showed an AC50 of 6.74 µM.
Consider `CCN(c1ccccc1)S(=O)(=O)c1cccc(C(=O)NCC(c2cccs2)N(C)C)c1` (configuration not stated), for which the AC50 is above 100 µM.
`O=C(Nc1cccc(Oc2ccc3c(c2)C(=O)NC3=O)c1)c1cccs1` came in with an AC50 of 13 µM.
In turn, `COc1cc(OC)nc(Oc2ccccc2C(=O)Oc2ccc(C)cc2)n1` showed a concentration at half-maximal activity (AC50) of 51.1 µM.
Take `COC(C(=O)Nc1ccnn1C1CCN(Cc2ccc(Cl)s2)CC1)c1ccccc1` (configuration not stated): the AC50 was above 100 µM.
On the same count and under the same terms, the result for `Cc1ccn2cc(-c3cccc(NC(=O)c4cccs4)c3)nc2c1` reads above 100 µM; that for `Oc1ccc(-c2csc(Nc3ncccn3)n2)cc1`, above 100 µM.
The molecule `CNC(=O)c1ccsc1NC(=O)c1ccc(S(=O)(=O)N2CCc3ccccc32)cc1` showed an AC50 of 2.19 µM.
With `C[C@H]1CN([C@@H](C)CO)C(=O)CCCn2nncc2CO[C@@H]1CN(C)Cc1ccccc1C(F)(F)F`, the AC50 is above 100 µM.
In turn, `COc1ccc(CNC(=O)c2sc3nc4c(c(C(F)(F)F)c3c2N)CCC4)cc1OC` yielded an AC50 of 13.9 µM.
As for `COC(=O)c1ccc(CSc2nc3ccccc3s2)o1`, the AC50 was 39 µM.
As for `C=C(C)Cn1c(=O)c2c(nc3n2CC(C)CN3Cc2ccccc2)n(C)c1=O` (configuration not stated), the AC50 is above 100 µM.
Turning to `CN1CCN(CC(=O)c2cc(C(C)(C)C)c(O)c(C(C)(C)C)c2)CC1`, the half-maximal activity concentration (AC50) was above 100 µM.
Consider `Cc1ccc(S(=O)(=O)N(C(=O)c2ccncc2)c2ccc(OC(=O)c3ccncc3)cc2)c(C)c1`, for which the half-maximal activity concentration (AC50) was above 100 µM.
Molecule `CCC1=Nc2cc(C(=O)NCc3cccnc3)ccc2Sc2ccc(C)cc21` returned a half-maximal activity concentration (AC50) above 100 µM.
`Cn1c(CC2C(=O)Nc3ccc(Br)cc32)nc2ccccc2c1=O` (configuration not stated) returned an AC50 above 100 µM.
In turn, `O=C1c2ccccc2CSc2c(O)cccc21` showed an AC50 of 45.9 µM.
Turning to `O=C(CCNC(=O)c1ccccc1)Nc1ccc(Cl)c(S(=O)(=O)N2CCCCC2)c1`, the AC50 was found to be 42.6 µM.
For `COc1ccccc1NS(=O)(=O)c1cc(C(=O)Nc2ccc(S(=O)(=O)Nc3onc(C)c3C)cc2)ccc1C`, the AC50 is 4.45 µM.
In the case of `COc1ccc(OC2C(=O)N(Cc3ccc4c(c3)OCO4)C2c2cccs2)cc1` (configuration not stated), the AC50 came to 47.4 µM.
`O=C(COC(=O)C1CC2C=CC1C2)Nc1ccc([N+](=O)[O-])cc1` (configuration not stated): the AC50 was above 100 µM.
The same measure, in the same setting: under `COc1ccc(OC)c(N(CC(=O)Nc2ccccc2F)S(=O)(=O)c2ccccc2)c1` stands 4.66 µM.
Same read-out and setting: under `Cc1ccccc1-c1nc(CS(=O)(=O)CC(=O)N2CCCCC2)c(C)o1` stands above 100 µM; under `[O-][n+]1ccccc1/C=C/c1ccccc1`, above 100 µM.
On the same count and under the same terms, under `O=C(O)c1cccnc1SCc1ccccc1Cl` stands 35.9 µM.
`Cc1c(CCOC(=O)C23CC4CC(CC(C4)C2)C3)sc[n+]1Cc1ccccc1` registered an AC50 of 4.41 µM.
The same measure, in the same setting: the result for `CCc1cc2c(=O)n(Cc3ccccc3)c(SC3CCOC3=O)nc2s1` (configuration not stated) reads 52.3 µM.
In turn, `CCCCn1c(=O)[nH]c(=O)c2c1nc(-c1ccccc1F)n2Cc1ccccc1` yielded an AC50 above 100 µM.
Consider `Cc1ccc(NC(=O)CN(C)S(=O)(=O)c2cccc3cccnc23)cc1F`, for which the AC50 was above 100 µM.
`CCOc1cc(/C=C(\CC(=O)O)c2nc3ccccc3s2)ccc1OC` had an AC50 above 100 µM.
On the same count and under the same terms, under `Brc1ccccc1Cn1c(-c2cncs2)nc2ccccc21` stands above 100 µM; under `O=C(O)c1cc(-c2cccs2)nn1-c1cccc(Cl)c1`, 46.1 µM.
Take `O=C1c2ccccc2C(c2nnnn2C2CCCCC2)N1CCc1ccc(O)cc1` (configuration not stated): the AC50 was above 100 µM.
The molecule `CSc1nnnn1-c1ccc(Cl)cc1` registered an AC50 above 100 µM.
The same measure, in the same setting: under `Cc1ccc(Cl)cc1N1CCN(C(=O)c2ccc3nc[nH]c3c2)CC1` stands 51.4 µM.
On the same count and under the same terms, under `O=C1N2c3ccccc3CCc3cccc(c32)C1(O)C(F)(F)F` (configuration not stated) stands 43.6 µM; under `CCOc1ccc(S(=O)(=O)N(C)c2ccc(OCC(=O)NCc3cccnc3)cc2)cc1`, above 100 µM.
As to `Fc1ccc(-c2nc3ccc(Cl)cn3c2Cc2cccc(Cl)c2)cc1`, the AC50 was above 100 µM.
`COc1ccccc1-c1noc2ncnc(Nc3cccc(C)c3C)c12`: the AC50 was above 100 µM.
As for `O=C(O)c1cc2ccc3ccccc3c2[nH]1`, the AC50 worked out at 7.13 µM.
On the same count and under the same terms, under `CC(C)(C)N(Cc1ccccc1)C(=O)COC(=O)Cn1cnc2ccccc2c1=O` stands above 100 µM; under `CSc1ccc(CN(C)C(=O)C(c2ccccc2)c2ccccc2)cc1`, 50.1 µM.
With `Cc1ccccc1-n1nnnc1SCCCC(=O)c1ccc(F)cc1`, the AC50 was 6.72 µM.
In turn, `Cc1ccccc1CSc1nnc(-c2ccccn2)n1C` came in with an AC50 of 28.3 µM.
`CCN(CC)CC(=O)Nc1sc2c(c1C(=O)c1ccccc1OC)CCC2` showed a half-maximal activity concentration (AC50) of 48.3 µM.
The molecule `Cc1noc(C)c1NC(=O)Nc1ccc2c(c1)C(=O)N([C@@H](C)CO)C[C@@H](C)[C@H](CN(C)C(=O)Nc1ccc3c(c1)OCO3)OCCCC[C@H](C)O2` returned a concentration at half-maximal activity (AC50) above 100 µM.
As to `COc1ccccc1NC(=O)CSc1ncc(CO)n1Cc1ccc(F)cc1`, the AC50 is above 100 µM.
Turning to `O=C(CSCc1cnn(-c2ccccc2)c1-n1cccc1)NCc1cccnc1`, the AC50 was 2.13 µM.
With `CSc1cccc(NC(=O)CCc2ccccc2)c1`, the AC50 turned out to be 20 µM.
Consider `COC(=O)c1cc(C(=O)Cc2ccccc2)c[nH]1`, for which the AC50 was above 100 µM.
`O=C(CSc1nc2ccccc2n1S(=O)(=O)c1cccc([N+](=O)[O-])c1)NCCc1ccccc1` returned an AC50 above 100 µM.
Still for that read-out and setting: under `Cc1noc2ncnc(SCc3ccc(C(F)(F)F)cc3)c12` stands above 100 µM; under `COc1ccc(C2CC(=O)CCN2S(=O)(=O)c2ccc(C)cc2)cc1` (configuration not stated), 3.86 µM.
On to `Cc1onc(-c2ccccc2Cl)c1C(=O)OCC(=O)c1ccccc1`, for which the AC50 came to 45.6 µM.
Molecule `Cc1ccc2c(N)c(C(=O)c3ccccc3)sc2n1` registered an AC50 of 50.8 µM.
In the case of `CC1Sc2ccc(S(=O)(=O)NCc3ccccc3)cc2NC1=O` (configuration not stated), the AC50 is above 100 µM.
`COc1ccc(C2CC(c3cccs3)=Nc3ccccc3S2)cc1` (configuration not stated): the AC50 was found to be 1.44 µM.
The same measure, in the same setting: the result for `COc1ccc(-c2csc(NC(=O)c3ccccc3S(C)(=O)=O)n2)cc1` reads above 100 µM; that for `Cc1ccccc1Nc1c(-c2cccnc2)nc2ccc(Br)cn12`, above 100 µM.
Consider `COc1cccc(CNC(=O)CCSCc2ccccc2F)c1`, for which the AC50 was above 100 µM.
`O=C(Nc1nnc(Cc2ccc(Cl)cc2)s1)c1ccncc1`: the AC50 is above 100 µM.
Same read-out and setting: under `O=C(Nc1nc(-c2ccc3ccccc3c2)cs1)C1CCN(S(=O)(=O)c2cccs2)CC1` stands above 100 µM; under `CN1CCSc2ccc(C(=O)Nc3cccc(F)c3)cc21`, 0.837 µM; under `O=C(O)c1cc(-c2ccc(-c3ccc(F)cc3)o2)nc2ccccc12`, 39.6 µM.
`CCOc1ccc(NC(=O)CCc2nnc3ccc(N4CCC(C)CC4)nn23)cc1` had an AC50 of 51.2 µM.
Molecule `O=C(NCCc1csc(-c2ccccc2)n1)c1ccccc1F` had an AC50 of 49 µM.
As for `FC(F)(F)c1ccc(Cl)c(-n2c(Cc3cccs3)n[nH]c2=S)c1`, the half-maximal activity concentration (AC50) is above 100 µM.
Molecule `NC(=O)c1ccccc1OCCOc1ccc(Br)cc1` showed an AC50 above 100 µM.
Take `Cc1noc(NS(=O)(=O)c2ccc(NC(=O)c3cc(-c4ccccc4Cl)nc4ccccc34)cc2)c1C`: the AC50 was found to be 45.6 µM.
Turning to `Cc1nn(C(C)(C)C)c(OC(=O)CC(C)C)c1S(=O)(=O)c1ccccc1`, the AC50 amounted to 30.7 µM.
For `Cc1cc(C)c(OCCN(C)Cc2ccccc2)c(Br)c1`, the AC50 is above 100 µM.
In turn, `Cc1cc(-c2ccc(C)c(S(=O)(=O)NCC3CCN(Cc4ccccc4F)CC3)c2)on1` came in with a concentration at half-maximal activity (AC50) above 100 µM.
The molecule `O=C1CCCCC1Nc1ccc(Br)cc1` (configuration not stated) returned a half-maximal activity concentration (AC50) above 100 µM.
Take `CC(C)n1nnnc1C1c2ccccc2C(=O)N1CCOc1ccccc1` (configuration not stated): the AC50 is 0.989 µM.
On to `Cc1ccccc1S(=O)(=O)c1cc2ccccc2nc1N`, for which the AC50 is above 100 µM.
`O=C(COC(=O)CCC(=O)c1ccc(F)cc1)NCCc1ccccc1` had an AC50 above 100 µM.
As for `O=C(OCC1COc2ccccc2O1)c1ccccc1F` (configuration not stated), the AC50 is above 100 µM.
Take `CCc1c(N=O)c(-c2ccccc2)n(O)[n+]1[O-]`: the concentration at half-maximal activity (AC50) is 6.29 µM.
On to `CCCCNC(=O)C[C@@H]1C[C@@]2(C(=O)OC)CCCCC=C2N(Cc2ccccc2)C1=O`, for which the AC50 is above 100 µM.
Same read-out and setting: the result for `O=S(=O)(c1cccc(-c2nc3ccccc3s2)c1)N1CCCC1` reads above 100 µM.
Molecule `CCc1cccc(NC(=O)c2ccc3c(=O)n4c(nc3c2)CCCCC4)c1` came in with an AC50 above 100 µM.
`O=C(c1ccc(-n2cccn2)cc1)N1CCc2ccccc2C1` came in with an AC50 of 52.2 µM.
As to `CCOC(=O)C1CCCN(Cc2c(Cl)cccc2Cl)C1` (configuration not stated), the AC50 came out at 6.66 µM.
On to `COC(=O)c1sccc1NC(=O)Cn1nnc(-c2ccccc2C)n1`, for which the AC50 is 45.1 µM.
`O=S(=O)(NCc1ccc2c(c1)OCO2)c1ccc2c(c1)oc1ccccc12` displayed an AC50 of 52.3 µM.
The same measure, in the same setting: under `C=CCNC(=O)c1ccccc1CCc1ccccc1` stands above 100 µM.
As for `COc1ccc2c(c1)c(C(C)=O)c(C)n2CCc1ccc(OC)c(OC)c1`, the AC50 turned out to be 51 µM.

The subject of the next assay is E. coli wild-type GFP strain growth, fluorescence, 24 h. Described as above.
Details: not given
Regarding `CCOc1ccc(CCNC(=O)CN2C(=O)CCSc3ccccc32)cc1`, the AC50 was > 100 µM (inactive).
Still for that read-out and setting: under `O=S(=O)(c1ccccc1)N1C[C@@H]2[C@H](c3ccccc31)[C@H](CO)N2Cc1ccccc1` stands > 100 µM (inactive); under `CCN(c1ccccc1)S(=O)(=O)c1cccc(C(=O)NCC(c2cccs2)N(C)C)c1` (configuration not stated), > 100 µM (inactive); under `CCC1=Nc2cc(C(=O)NCc3cccnc3)ccc2Sc2ccc(C)cc21`, > 100 µM (inactive).
On to `COc1ccccc1NS(=O)(=O)c1cc(C(=O)Nc2ccc(S(=O)(=O)Nc3onc(C)c3C)cc2)ccc1C`, for which the AC50 is > 100 µM (inactive).
With `Cc1ccc(CSCC(=O)N(C)CC(=O)Nc2ccccc2Cl)cc1`, the AC50 is > 100 µM (inactive).
As to `C[C@@H]1CN([C@@H](C)CO)C(=O)CCCn2nncc2CO[C@H]1CN(C)C(=O)Nc1ccc(C(F)(F)F)cc1`, the AC50 was > 100 µM (inactive).
On to `CCC(=O)Nc1nc2ccc(NC(=O)c3cc(OC)c(OC)c(OC)c3)cc2s1`, for which the AC50 is > 100 µM (inactive).

The assay is the same for the next values; noted with them: E. coli mixed culture, 24 h; measured here: total growth OD600, test 2.
Turning to `COc1cc(OC)nc(Oc2ccccc2C(=O)Oc2ccc(C)cc2)n1`, the AC50 stood at 50.4 µM.
The same measure, in the same setting: the result for `Cc1ccn2cc(-c3cccc(NC(=O)c4cccs4)c3)nc2c1` reads above 100 µM; that for `C=C(C)Cn1c(=O)c2c(nc3n2CC(C)CN3Cc2ccccc2)n(C)c1=O` (configuration not stated), above 100 µM; that for `C=CCn1c(C)cc(C(=O)COC(=O)CNC(=O)c2ccccc2)c1C`, 44 µM.
`Cc1noc(C)c1NC(=O)Nc1ccc2c(c1)C(=O)N([C@H](C)CO)C[C@H](C)[C@@H](CN(C)C(=O)Nc1ccc3c(c1)OCO3)OCCCC[C@@H](C)O2` returned an AC50 above 92 µM.
